The NIST ThermoML archive (doi:10.1021/je9001653)
Where “and” joins values, the source holds several entries; their conditions need not be identical. Equal values may be shown once.

CC(=O)[CH-]C(C)=O.CC(=O)[CH-]C(C)=O.[Cu+2] [bis(2,4-pentanedionato-O,O')copper]
Crystal
Details	vapor or sublimation pressure [kPa]
367.65 K	2.2e-05
372.42 K	3.9e-05
376.95 K	6.8e-05
381.83 K	0.00011
386.45 K	0.000172
388.98 K	0.000201
395.55 K	0.000398
398.5 K	0.000601
400.64 K	0.000705
403.26 K	0.000875
405.05 K	0.00118
414.35 K	0.00257
417.53 K	0.00387
423.85 K	0.00479
433.65 K	0.00927
442.85 K	0.0199

c1cc2ccc3cccc4ccc(c1)c2c34 [pyrene]
Crystal 1
Details	vapor or sublimation pressure [kPa]
341.45 K	7.5e-05
351.05 K	0.000171
369.85 K	0.000882
373.95 K	0.00147
379.55 K	0.00197
383.95 K	0.00472
389.05 K	0.00539
392.95 K	0.00846
398.55 K	0.01067
402.05 K	0.01662
408.05 K	0.02731

c1ccc2cc3ccccc3cc2c1 [anthracene]
Crystal
Details	vapor or sublimation pressure
339.25 K	0.000104 kPa
348.35 K	0.000289 kPa
360.45 K	0.000978 kPa
365.66 K	0.00158 kPa
373.95 K	0.00311 kPa
376.95 K	0.00358 kPa
379.55 K	0.00416 kPa
386.45 K	0.00813 kPa
389.05 K	0.00875 kPa and 0.00962 kPa
392.95 K	0.01486 kPa
393.75 K	0.01211 kPa and 0.01243 kPa
398.05 K	0.01765 kPa
398.55 K	0.01813 kPa and 0.0185 kPa
